Results published in US4530931A, “8-Quinoline carbanilates for the inhibition of lipolysis” (priority 1984, dated 1985).

Key:
rat adipocyte lipolysis = assay: Rat adipocyte assay (epinephrine-stimulated lipolysis, glycerol release); type: cell-based; settings: for Adipocyte % Inhib. at 3 μM: 3 μM compound; for IC50: epinephrine 3 μM plus methylisobutylxanthine 10 μM, 1 hour at 37° C., read-out: Adipocyte I50; for inhibition at 100 µM: read-out: Adipocyte % Inhib. at 100 μM
Experimental: Abdominal fat pads were removed from male rats weighing 200-250 grams and placed in Krebs-bicarbonate buffer gassed with 95% O2 /5% CO2. The fat pads were digested with collagenase for 1 hour at 37° C., washed twice with Krebs-bicarbonate buffer and distributed among a set of 20 ml plastic counting vials. Two such vials received only buffer and cells (4 ml) but no agonists or antagonists. The remaining vials received epinephrine (3 μM) plus the phosphodiesterase inhibitor methylisobutylxanthine (10 μM). Test compounds were dissolved in DMSO or water to a concentration of […] and […] was added to the buffer plus cells in the counting vials. The final compound concentration for routine screening was 200 μM (final concentration of DMSO=1%).
The cells were incubated for 1 hour at 37° C. under a 95% O2 /5% CO2 atmosphere. The incubation was stopped by placing the vials in crushed ice. The cells and medium were transferred to test tubes, centrifuged and the cell layer removed by aspiration. The aqueous phase was assayed for glycerol using the enzyme glycerol dehydrogenase.
The glycerol dehydrogenase assay for glycerol depends on the enzyme catalyzed conversion of glycerol to glyceraldehyde and NAD to NADH. The assay can detect as little as 5-10 nanomoles of glycerol. The aqueous phase, following removal of cells, usually contained about 50 to 80 nanomoles of glycerol per 300 μl of assayed sample if no inhibitory activity was present. Samples from the control tubes (no agonist) usually contained 0-5 nanomoles of glycerol per 300 μl of sample.

Canine cardiac lipases = assay: Myocardial lipase assay; type: biochemical; settings: for Lipase % Inh. at 100 μM: 100 μM compound, tested in duplicate; for IC50: triolein emulsion, Tris pH 6.8, read-out: Lipase I50
Experimental: All compounds were dissolved in DMSO (final concentration 3.0%) and tested in duplicate at a concentration of 100 μM. Canine cardiac lipases were obtained by extracting washed heart membranes with buffer plus heparine and a small amount of Triton X-100 detergent. Because these enzymes are only active at an oil-water interface, the enzyme reaction is run in an oil-water emulsion that contains triolein substrate, Tris buffer (50mM, pH 6.8) and a small amount of bovine serum albumin (0.5%) added to stabilize the emulsion. A small amount of tritiated triolein was added to the unlabelled triolein substrate. Tritium-labelled oleic acid released by the lipases was extracted into hexane, separated from unreacted triolein and counted in a scintillation counter. Inhibitory agents reduce the amount of radioactivity appearing in the free fatty acid fraction isolated in the extraction procedure.

[1] = Rattus norvegicus, Adipocyte, 100 μM compound

Compound	Adipocyte % Inhib. at 3 μM (rat adipocyte lipolysis) [%]	Lipase % Inh. at 100 μM (Canine cardiac lipases) [%]	also measured
8-quinolyl-3-trifluoromethyl carbanilate [No. 14]	76	63	–
8-(4-Methoxyphenylcarbamoyl)-quinolin)-5-sulfonic acid, Triethylamine [No. 23]	–	76	IC50 (rat adipocyte lipolysis): 35 µM
COc1ccc(C(=O)Oc2cccc3cccnc23)cc1 [No. 31, 8-quinolyl-4-methoxy benzoate]	–	13	inhibition at 200 µM (rat adipocyte lipolysis; Rattus norvegicus, Adipocyte, 200 μM compound, read-out: Adipocyte % Inhib. at 200 μM): 49%
2-methoxyphenyl-8-quinoyl carbamate [No. 5]	–	72	IC50 (rat adipocyte lipolysis): 5.8 µM
2-methyl-8-quinolyl carbanilate [No. 19]	–	–	IC50 (rat adipocyte lipolysis): 10 µM; IC50 (Canine cardiac lipases): 48 µM
COc1ccc(NC(=O)COc2cccc3cccnc23)cc1 [compound 25]	–	7	inhibition at 100 µM (rat adipocyte lipolysis; [1]): 26%
(R)8-quinolyl alpha-methyl benzyl carbamate [No. 29]	–	56	Adipocyte % Inhib. at 200 μM (rat adipocyte lipolysis; 200 μM compound): 28%
8-quinolyl-3-methyl carbanilate [No. 12]	5	41	–
(S)8-quinolyl alpha-methyl benzyl carbamate [No. 28]	–	83	Adipocyte % Inhib. at 200 μM (rat adipocyte lipolysis; 200 μM compound): 14%
8-Quinolyl-4-methoxy Acetanilide [No. 25]	–	74	IC50 (rat adipocyte lipolysis): 35 µM
8-quinolyl-2,4-dimethoxy carbanilate [No. 15]	84	64	–
8-quninolyl-4-carbethoxy carbanilate [No. 7]	–	75	Adipocyte % Inhib. at 30 μM (rat adipocyte lipolysis; 30 μM compound): 3%
8-quinolyl-4-methoxy phenethyl carbamate [No. 27]	4	69	–
2-methyl-8-quinolyl-4-methoxy carbanilate [No. 20]	5	–	IC50 (Canine cardiac lipases): 80 µM
COc1ccccc1NC(=O)Oc1cccc2cccnc12 [No. 2, 8-quinolyl-2-methoxy carbanilate]	–	–	IC50 (Canine cardiac lipases): 40 µM
8-quinolyl-2,5-dimethoxy carbanilate [No. 16]	40	7	–

Compound	Adipocyte % Inhib. at 3 μM (rat adipocyte lipolysis) [%]	Lipase % Inh. at 100 μM (Canine cardiac lipases) [%]	also measured
4-Methoxyphenyl-8-quinolyl Urea [No. 6]	–	70	Adipocyte % Inhib. at 100 μM (rat adipocyte lipolysis; 100 μM compound): 98%
COc1cccc(NC(=O)Oc2cccc3cccnc23)c1 [No. 3, 8-quinolyl-3-methoxy carbanilate]	–	–	IC50 (Canine cardiac lipases): 18 µM
8-quinolyl-4-methyl carbanilate [No. 11]	52	58	–
8-quinolyl-4-methoxy benzyl carbamate [No. 26]	5	68	–
8-quinolyl-4-chloro carbanilate [No. 8]	–	–	IC50 (rat adipocyte lipolysis): 30 µM; IC50 (Canine cardiac lipases): 20 µM
8-quinolyl-3-chloro carbanilate [No. 9]	–	–	Adipocyte % Inhib. at 200 μM (rat adipocyte lipolysis; 200 μM compound): 4%; IC50 (Canine cardiac lipases): 7300 µM
2-methyl-8-quinolyl-4-bromo carbanilate [No. 21]	28	69	–
8-quinolyl-4-bromo carbanilate [No. 17]	7	56	–
8-quinolyl-2-chloro carbanilate [No. 10]	–	–	Adipocyte % Inhib. at 200 μM (rat adipocyte lipolysis; 200 μM compound): 44%; IC50 (Canine cardiac lipases): 200 µM
8-quinolyl-carbanilate [No. 18]	–	65	IC50 (rat adipocyte lipolysis): 0.2 µM
COc1ccc(CC(=O)Oc2cccc3cccnc23)cc1 [No. 30, 8-Quinoloyl-4-methoxyphenylAcetate]	–	–	inhibition at 100 µM (rat adipocyte lipolysis; [1]): 74%
8-quinolyl-2-methyl carbanilate [No. 13]	–	1	–
5-chloro-8-quinolyl carbanilate [No. 22]	29	68	–
5,7-dichloro-8-quinolyl carbanilate [No. 24]	–	68	IC50 (rat adipocyte lipolysis): 0.2 µM
COc1ccc(NC(=O)Oc2cccc3cccnc23)cc1 [No. 1, 8-Quinolyl-4-Methoxy Carbanilate]	–	–	IC50 (Canine cardiac lipases): 17 µM
